Data as given in publication PMC8466373, “Plant-Derived and Dietary Hydroxybenzoic Acids—A Comprehensive Study of Structural, Anti-/Pro-Oxidant, Lipophilic, Antimicrobial, and Cytotoxic Activity in MDA-MB-231 and MCF-7 Cell Lines” (Nutrients, 2021).
Values after ≈ are worked out from the molar mass of the structure shown. Values joined by “and” are separate entries in the source; they are usually repeats but may differ in a detail not shown here. Equal entries are not always repeated. Marks after values point to notes of the source that are not given here.

tested on: not listed separately; experiment: DPPH assay; format: biochemical; conditions: methanolic solutions, 60 min of reaction time
Procedure: DPPH assay was measured according to the method described by Rice-Evans. Appropriate volumes of methanolic solutions of the tested hydroxybenzoic acids (C = 30 μM) were mixed with methanol in test tubes to prepare a series of solutions of various concentrations (final volume 1 mL). Then, 2 mL of methanolic solution of DPPH^• (C = 60 μM) was added to each tube; the control contained methanol instead of the sample. The tubes with reaction mixtures were capped, vortexed, and left to stand for 60 min at 23 °C in the dark. The absorbance of the solutions was measured by the use of a Cary 5000 UV–Vis spectrophotometer (Santa Clara, CA, USA) at λ = 516 nm against pure methanol. […] The concentration of the tested hydroxybenzoic acids was plotted against the %I, and the IC50 values (antioxidant concentration that inhibited 50% of DPPH^• radicals) were calculated from the obtained scavenging curves.

**Q.** Which IC50 does the source give for O=C(O)c1c(O)cccc1O [2,6-DHB, 2,6-dihydroxybenzoic acid] here?
**A.** The IC50 was 0.209 ± 0.00098 mM.

**Q.** With O=C(O)c1cc(O)ccc1O [2,5-DHB, 2,5-dihydroxybenzoic acid] as the molecule, how does the IC50 read?
**A.** The IC50 was 0.00499 ± 0.00079 mM.

**Q.** With O=C(O)c1cccc(O)c1O [2,3-DHB, 2,3-Dihydroxybenzoic acid] as the molecule, how does the IC50 read?
**A.** Its IC50 is 0.00586 ± 0.00064 mM.

tested on: Staphylococcus aureus (PCM 2267); experiment: MIC by serial dilution in agar medium; format: cell-based; conditions: read-out: MIC
Procedure: (§1) The following bacterial strains were used in this study: Escherichia coli (PCM 2857), Pseudomonas aeruginosa (PCM 2720), Bacillus subtilis (PCM 2850), Staphylococcus aureus (PCM 2267), Salmonella enteritidis (NCTC 4776), and Candida albicans (PCM 2566-FY). The microbial strains were bought from the Polish Collection of Microorganisms (Wroclaw, Poland) or the American Type Culture Collection. Bacteria (0.1 mL of the reconstituted suspension) were seeded onto sterile Mueller–Hinton agar plates (Biomaxima), to which previously suitable amounts of the tested compounds were added to give the desired concentration.
(§2) The MIC (minimal inhibitory concentration) was determined by serial dilution of the tested compound in an agar medium, to which the appropriate inoculum of microorganisms was then added and incubated. Escherichia coli, Pseudomonas aeruginosa, Staphylococcus aureus, Bacillus subtilis, Salmonella enteritidis, and Candida albicans were grown overnight and then resuspended in physiological saline to an optical density at 600 nm (OD = 600) of 0.60, corresponding to 5.0 × 10^8 CFU/mL. Bacteria (0.1 mL of the reconstituted suspension) were seeded onto sterile Mueller–Hinton agar plates, to which previously suitable amounts of the tested compounds were added to reach the desired concentration. Tested chemicals were dissolved in DMSO solution. Negative controls were agar plates, to which DMSO was added, while positive controls were plates with gentamycin (in the case of bacteria) or flucanozole (in the case of fungi). The plates were incubated at 37 °C for 24 h. The lowest concentration without visible bacterial growth was determined as the MIC.

**Q.** With O=C(O)c1c(O)cccc1O [2,6-DHB, 2,6-dihydroxybenzoic acid] as the molecule, how does the MIC read?
**A.** Its MIC is 5000 µg/mL (≈ 32.4 mM).

**Q.** For O=C(O)c1cc(O)ccc1O [2,5-DHB, 2,5-dihydroxybenzoic acid], which MIC is on record?
**A.** The MIC was 5000 µg/mL (≈ 32.4 mM).

**Q.** With O=C(O)c1cccc(O)c1O [2,3-DHB, 2,3-Dihydroxybenzoic acid] as the molecule, how does the MIC read?
**A.** Its MIC is 5000 µg/mL (≈ 32.4 mM).

tested on: Escherichia coli (PCM 2857); experiment: MIC by serial dilution in agar medium; format: cell-based; conditions: read-out: MIC
Procedure: as §1, §2

**Q.** With O=C(O)c1c(O)cccc1O [2,6-DHB, 2,6-dihydroxybenzoic acid] as the molecule, how does the MIC read?
**A.** The MIC was 3000 µg/mL (≈ 19.5 mM).

**Q.** Which MIC does the source give for O=C(O)c1cc(O)ccc1O [2,5-DHB, 2,5-dihydroxybenzoic acid] here?
**A.** The MIC was 3000 µg/mL (≈ 19.5 mM).

**Q.** Which MIC does the source give for O=C(O)c1cccc(O)c1O [2,3-DHB, 2,3-Dihydroxybenzoic acid] here?
**A.** The MIC was 5000 µg/mL (≈ 32.4 mM).

tested on: Pseudomonas aeruginosa (PCM 2720); experiment: MIC by serial dilution in agar medium; format: cell-based; conditions: read-out: MIC
Procedure: as §1, §2

**Q.** With O=C(O)c1c(O)cccc1O [2,6-DHB, 2,6-dihydroxybenzoic acid] as the molecule, how does the MIC read?
**A.** The MIC was 4000 µg/mL (≈ 26 mM).

**Q.** Which MIC does the source give for O=C(O)c1cc(O)ccc1O [2,5-DHB, 2,5-dihydroxybenzoic acid] here?
**A.** Its MIC is 5000 µg/mL (≈ 32.4 mM).

**Q.** For O=C(O)c1cccc(O)c1O [2,3-DHB, 2,3-Dihydroxybenzoic acid], which MIC is on record?
**A.** Its MIC is 5000 µg/mL (≈ 32.4 mM).

tested on: Bacillus subtilis (PCM 2850); experiment: MIC by serial dilution in agar medium; format: cell-based; conditions: read-out: MIC
Procedure: as §1, §2

**Q.** Which MIC does the source give for O=C(O)c1c(O)cccc1O [2,6-DHB, 2,6-dihydroxybenzoic acid] here?
**A.** The MIC was 3000 µg/mL (≈ 19.5 mM).

**Q.** Which MIC does the source give for O=C(O)c1cc(O)ccc1O [2,5-DHB, 2,5-dihydroxybenzoic acid] here?
**A.** Its MIC is 3000 µg/mL (≈ 19.5 mM).

**Q.** With O=C(O)c1cccc(O)c1O [2,3-DHB, 2,3-Dihydroxybenzoic acid] as the molecule, how does the MIC read?
**A.** The MIC was 5000 µg/mL (≈ 32.4 mM).

tested on: Candida albicans (PCM 2566-FY); experiment: MIC by serial dilution in agar medium; format: cell-based; conditions: read-out: MIC
Procedure: as §1, §2

**Q.** With O=C(O)c1c(O)cccc1O [2,6-DHB, 2,6-dihydroxybenzoic acid] as the molecule, how does the MIC read?
**A.** Its MIC is 3000 µg/mL (≈ 19.5 mM).

**Q.** For O=C(O)c1cc(O)ccc1O [2,5-DHB, 2,5-dihydroxybenzoic acid], which MIC is on record?
**A.** Its MIC is 5000 µg/mL (≈ 32.4 mM).

**Q.** For O=C(O)c1cccc(O)c1O [2,3-DHB, 2,3-Dihydroxybenzoic acid], which MIC is on record?
**A.** Its MIC is 5000 µg/mL (≈ 32.4 mM).

tested on: not listed separately; experiment: FRAP assay (ferric-reducing antioxidant power); format: biochemical; parameters: key: (-): Negative values were obtained for these acids; conditions: concentration of 50 μM, methanolic solutions
Procedure: FRAP assay was carried out as described in [42]. […] After 8 min of incubation at 23 °C, the absorbance at 595 nm was measured against the blank (containing 0.4 mL of methanol instead of the sample). Ferric-reducing antioxidant activity was expressed as Fe(II) ion equivalents (μM) using the calibration curve obtained for FeSO4 (the standard curve equation: y = 3.4303x − 0.1058; R^2 = 0.9984).

**Q.** With O=C(O)c1c(O)cccc1O [2,6-DHB, 2,6-dihydroxybenzoic acid] as the molecule, how does the FRAP read?
**A.** The FRAP was “(-) *”.

**Q.** With O=C(O)c1cc(O)ccc1O [2,5-DHB, 2,5-dihydroxybenzoic acid] as the molecule, how does the FRAP read?
**A.** Its FRAP is 236.00 µM Fe^2+ and 236.00 ± 6.31 µM Fe^2+.

**Q.** Which FRAP does the source give for O=C(O)c1cccc(O)c1O [2,3-DHB, 2,3-Dihydroxybenzoic acid] here?
**A.** Its FRAP is 173.79 µM Fe^2+ and 173.79 ± 39.06 µM Fe^2+.

tested on: not listed separately; experiment: Pro-oxidant activity, Trolox oxidation assay; format: biochemical; conditions: after 120 min of incubation, concentrations of 35 μM
Procedure: The pro-oxidant activity was expressed as the rate of Trolox oxidation according to the protocol described in [45]. First, a mixture of 0.5 mL of Trolox (C = 0.4 mM; in water) with 0.5 mL of H2O2 (C = 0.2 mM; in water), 0.5 mL of HRP (C = 0.04 μM; in phosphate buffer; pH = 7), 5 μL of the tested compounds (C = 50 μM; in methanol), and […] of distilled water was prepared as the tested sample. […] The control contained methanol instead of the tested substance.

**Q.** For O=C(O)c1c(O)cccc1O [2,6-DHB, 2,6-dihydroxybenzoic acid], which “degree of Trolox oxidation” value is on record?
**A.** Its value is 9.52%.

tested on: not listed separately; experiment: ABTS assay; format: biochemical; conditions: 50 μM, methanolic solutions, 7 min of reaction time
Procedure: ABTS assay was conducted according to the procedure of Re et al.. […] The absorbance of the solutions was measured with a UV–Vis spectrophotometer at 734 nm against methanol (the blank). The ability to scavenge ABTS^•+ cation radicals was expressed as the %I of ABTS^•+ and calculated according to the aforementioned equation.

**Q.** For O=C(O)c1c(O)cccc1O [2,6-DHB, 2,6-dihydroxybenzoic acid], which “Inhibition of ABTS•+ radicals (%I)” value is on record?
**A.** The value was 8.12%.

**Q.** For O=C(O)c1cc(O)ccc1O [2,5-DHB, 2,5-dihydroxybenzoic acid], which “Inhibition of ABTS•+ radicals (%I)” value is on record?
**A.** Its value is 80.11%.

**Q.** With O=C(O)c1cccc(O)c1O [2,3-DHB, 2,3-Dihydroxybenzoic acid] as the molecule, how does the “Inhibition of ABTS•+ radicals (%I)” value read?
**A.** The value was 86.40%.

tested on: not listed separately; experiment: Cytotoxicity, neutral red (NR) assay; format: cell-based, human; conditions: human, MCF-7 cells (breast adenocarcinoma); 48 h treatment, neutral red assay; read-out: Cytotoxicity (mM) in Cell Line MCF-7, IC50
Procedure: Briefly, MCF-7 cells were cultured in EMEM (Biological Industries, Israel) medium supplemented with 10% fetal calf serum (Gibco). MDA-MB-231 cells were cultured in Leibovitz‘s L15 (Biological Industries, Beit HaEmek, Israel) medium supplemented with 10% fetal calf serum (Gibco). The MCF-7 cells were incubated in a 5% CO2 atmosphere at 37 °C, whereas the MDA-231 cells were incubated in a 100% air atmosphere at 37 °C.
Cytotoxicity evaluation was conducted to assess the impact of hydroxybenzoic acids on the proliferation of MCF-7 and MDA-MB-231 cells, which was measured via neutral red (NR) assay. In brief, cells were seeded in 96-well microplates (TPP, Switzerland) at a density of 2 × 10^4 cells/well in 100 μL of culture medium. At least three independent experiments in six replicate wells were conducted per concentration. Twenty-four hours after cell seeding, cells were treated with increasing concentrations of hydroxybenzoic acids (0.02–5 mM) for forty-eight hours. After treatment, cells were incubated for 3 h at 37 °C with 100 µL of neutral red solution (stock solution of NR) (Sigma-Aldrich), and then 5 mg/mL of PBS was diluted 1:100 in cell culture medium, incubated for 12 h at 37 °C, and centrifuged to remove any undissolved NR powder. […] After 15 min of gentle shaking, optical density was read at 540 nm with an Infinite M200 plate reader spectrophotometer (Tecan, Austria).

**Q.** Which IC50 at 48 h does the source give for O=C(O)c1c(O)cccc1O [2,6-DHB, 2,6-dihydroxybenzoic acid] here?
**A.** Its IC50 at 48 h is > 5 mM.

**Q.** Which IC50 at 48 h does the source give for O=C(O)c1cc(O)ccc1O [2,5-DHB, 2,5-dihydroxybenzoic acid] here?
**A.** Its IC50 at 48 h is > 5 mM.

**Q.** With O=C(O)c1cccc(O)c1O [2,3-DHB, 2,3-Dihydroxybenzoic acid] as the molecule, how does the IC50 at 48 h read?
**A.** The IC50 at 48 h was > 5 mM.

same assay, conditions: human, MDA-MB-231 cells (breast adenocarcinoma); 48 h treatment, neutral red assay; read-out: Cytotoxicity (mM) in Cell Line MDA-MB-231, IC50

**Q.** For O=C(O)c1c(O)cccc1O [2,6-DHB, 2,6-dihydroxybenzoic acid], which IC50 at 48 h is on record?
**A.** The IC50 at 48 h was 3.97 mM.

**Q.** For O=C(O)c1cc(O)ccc1O [2,5-DHB, 2,5-dihydroxybenzoic acid], which IC50 at 48 h is on record?
**A.** The IC50 at 48 h was 4.39 mM.

**Q.** Which IC50 at 48 h does the source give for O=C(O)c1cccc(O)c1O [2,3-DHB, 2,3-Dihydroxybenzoic acid] here?
**A.** Its IC50 at 48 h is 4.1 mM.

tested on: not listed separately; experiment: CUPRAC assay (cupric-reducing antioxidant capacity); format: biochemical; conditions: concentration of 50 μM, methanolic solutions
Procedure: CUPRAC assay was carried out according to the method described in [44]. First, […] of CuCl2 (C = 10 mM; in water) was mixed with […] of ammonium acetate (pH 7; in water) and neocuproine (C = 75 mM; in ethanol). […] The samples were mixed and incubated for 60 min at room temperature (23 °C). The absorbance of the samples was measured with a UV–Vis spectrophotometer at λ = 450 nm against a blank (containing 0.5 mL of methanol instead of the sample). […] R^2 = 0.9919).

**Q.** For O=C(O)c1cc(O)ccc1O [2,5-DHB, 2,5-dihydroxybenzoic acid], which “CUPRAC assay: Trolox equivalent” value is on record?
**A.** Its value is 68.77 µM.

**Q.** For O=C(O)c1cccc(O)c1O [2,3-DHB, 2,3-Dihydroxybenzoic acid], which “CUPRAC assay: Trolox equivalent” value is on record?
**A.** Its value is 60.83 µM.
